Converted amounts (≈) assume the structure as drawn.
Assays:
H. pylori, ATCC 43504 = experiment: Antibacterial power test, Columbia agar, MIC; assay type: cell-based, Helicobacter pylori; conditions: Helicobacter pylori, ATCC43504, 72 h, 37° C., pH 7.0, 3 days, read on 4th day, read-out: MIC, in vitro anti-Helicobacter pylori activity
Description: An in vitro test was performed in a Columbia agar medium using a standard strain of H. pylori, ATCC 43504. […] Each of the test objects was dissolved in a 1% DMSO solution. Furthermore, as antibiotic control drugs, ampicillin from the penicillin family (control drug 1), gentamycin from the aminoglycoside family (control drug 2), tetracycline from the tetracycline family (control drug 3), and ofloxacin from the new quinolone family (control drug 4) were used.

[1] = system: H. pylori ofloxacin- and roxithromycin-resistant clinical isolate TY2; experiment: In vitro MIC test in Columbia agar, resistant clinical isolate; assay type: cell-based; conditions: Helicobacter pylori, 72 h; resistant strain TY2; 37° C., pH 7.0, 3 days
Description: (§1) An in vitro test was performed in a Columbia agar medium using standard strains of H. pylori, NCTC 11637 and 11916, clinical isolates PT#1045482, PT#1045483 and PT#1045484, and ofloxacin- and roxithromycin-resistant, clinical isolates TY2, 4 and 5. Each of the test objects was dissolved in a 1% DMSO solution. Furthermore, as antibiotic control drugs, roxithromycin from the macrolide family and ofloxacin from the new quinolone family were used. The strains were cultured at 37° C. and pH 7.0 for 3 days, and on the 4th day, the minimum inhibitory concentrations (MIC, μg/ml) were determined.

[2] = system: H. pylori ofloxacin- and roxithromycin-resistant clinical isolate TY5; experiment: as above; assay type: cell-based; conditions: Helicobacter pylori, 72 h; resistant strain TY5; 37° C., pH 7.0, 3 days
Description: as §1

[3] = system: H. pylori ofloxacin- and roxithromycin-resistant clinical isolate TY4; experiment: as above; assay type: cell-based; conditions: Helicobacter pylori, 72 h; resistant strain TY4; 37° C., pH 7.0, 3 days
Description: as §1

H. pylori NCTC 11637 = experiment: In vitro MIC test in Columbia agar, standard strain; assay type: cell-based, Helicobacter pylori; conditions: Helicobacter pylori, NCTC11637, 72 h; standard strain NCTC 11637; 37° C., pH 7.0, 3 days
Description: as §1

H. pylori NCTC 11916 = experiment: as above; assay type: cell-based, Helicobacter pylori; conditions: Helicobacter pylori, NCTC11916, 72 h; standard strain NCTC 11916; 37° C., pH 7.0, 3 days
Description: as §1

[4] = system: H. pylori clinical isolate PT#1045484; experiment: In vitro MIC test in Columbia agar, clinical isolate; assay type: cell-based; conditions: Helicobacter pylori, 72 h, 37° C., pH 7.0, 3 days
Description: as §1

[5] = system: H. pylori clinical isolate PT#1045483; experiment: as above; assay type: cell-based; conditions: Helicobacter pylori, 72 h, 37° C., pH 7.0, 3 days
Description: as §1

[6] = system: H. pylori clinical isolate PT#1045482; experiment: as above; assay type: cell-based; conditions: Helicobacter pylori, 72 h, 37° C., pH 7.0, 3 days
Description: as §1

[7] = system: Staphylococcus epidermidis (ATCC 12228); experiment: In vitro antibacterial test against various bacteria, MIC; assay type: cell-based; conditions: ATCC12228, 37° C., 20 to 48 hours, read-out: MIC
Description: (§2) An in vitro antibacterial test for the compounds of Examples 1 to 6 against various bacteria was performed. As gram-negative bacteria, Escherichia coli (ATCC 10536, ATCC 25922), Klebsiella pneumonia (ATCC 10031), Proteus vulgaris (ATCC 13315), Pseudomonas aeruginosa (ATCC 9027), Salmonella typhimurium (ATCC 13311), and as gram-positive bacteria, Staphylococcus aureus, MRSA (ATCC 33591), Staphylococcus epidermidis (ATCC 12228), Streptococcus pneumonia (ATCC 6301), Mycobacterium ranae (ATCC 110) and Enterococcus faecalis (VRE, ATCC 51575) were used. The various bacteria were cultured at 37° C. for 20 to 48 hours by conventional methods, and the minimum inhibitory concentrations (MIC, μg/ml) were determined. Each of the test objects were dissolved in a 1% DMSO solution. Furthermore, as an antibiotic control drug, gentamycin (GEM) from the aminoglycoside family was used.

[8] = system: Proteus vulgaris (ATCC 13315); experiment: as above; assay type: cell-based; conditions: ATCC13315, 37° C., 20 to 48 hours, read-out: MIC
Description: as §2

[9] = system: Salmonella typhimurium (ATCC 13311); experiment: as above; assay type: cell-based; conditions: Salmonella enterica, 37° C., 20 to 48 hours, read-out: MIC
Description: as §2

[10] = system: Streptococcus pneumonia (ATCC 6301); experiment: as above; assay type: cell-based; conditions: Streptococcus pneumoniae, ATCC6301, 37° C., 20 to 48 hours
Description: as §2

[11] = system: Escherichia coli (ATCC 25922); experiment: as above; assay type: cell-based; conditions: ATCC25922, 37° C., 20 to 48 hours, read-out: MIC
Description: as §2

[12] = system: Escherichia coli (ATCC 10536); experiment: as above; assay type: cell-based; conditions: ATCC10536, 37° C., 20 to 48 hours, read-out: MIC
Description: as §2

[13] = system: Mycobacterium ranae (ATCC 110); experiment: as above; assay type: cell-based; conditions: ATCC110, 37° C., 20 to 48 hours, read-out: MIC
Description: as §2

[14] = system: Enterococcus faecalis (VRE, ATCC 51575); experiment: as above; assay type: cell-based; conditions: 37° C., 20 to 48 hours
Description: as §2

[15] = system: Pseudomonas aeruginosa (ATCC 9027); experiment: as above; assay type: cell-based; conditions: ATCC9027, 37° C., 20 to 48 hours, read-out: MIC
Description: as §2

[16] = system: Staphylococcus aureus, MRSA (ATCC 33591); experiment: as above; assay type: cell-based; conditions: 37° C., 20 to 48 hours, read-out: MIC
Description: as §2

[17] = system: Klebsiella pneumonia (ATCC 10031); experiment: as above; assay type: cell-based; conditions: Klebsiella pneumoniae, ATCC10031, 37° C., 20 to 48 hours, read-out: MIC
Description: as §2

[18] = system: Helicobacter pylori NCTC11916; conditions: standard strain NCTC11916; data from Table 6 of JP-A No. 7-69888; cited from earlier work
[19] = system: Helicobacter pylori NCTC11637; conditions: standard strain NCTC11637; data from Table 6 of JP-A No. 7-69888; cited from earlier work

Row | SMILES | MIC (H. pylori, ATCC 43504) [µg/mL] | MIC [1] [µg/mL] | MIC [2] [µg/mL] | MIC [3] [µg/mL] | MIC (H. pylori NCTC 11637) [µg/mL] | MIC (H. pylori NCTC 11916) [µg/mL] | MIC [4] [µg/mL] | MIC [5] [µg/mL] | MIC [6] [µg/mL] | MIC [7] [µg/mL] | MIC [8] [µg/mL] | MIC [9] [µg/mL] | MIC [10] [µg/mL] | MIC [11] [µg/mL] | MIC [12] [µg/mL] | MIC [13] [µg/mL] | MIC [14] [µg/mL] | MIC [15] [µg/mL] | MIC [16] [µg/mL] | MIC [17] [µg/mL] | other results
1 | Cc1c(OCCCO)ccnc1CSc1nc2ccccc2[nH]1 [Comparative Compound 2, 2-[{4-(3-hydroxypropoxy)-3-methylpyridin-2-yl}methylthio]-1H-benzimidazole, reference compound] | 3 (≈ 9.11 µM) |  |  |  |  |  |  |  |  |  |  |  |  |  |  |  |  |  |  |  | 
2 | CC1(C)S[C@@H]2[C@H](NC(=O)[C@H](N)c3ccccc3)C(=O)N2[C@H]1C(=O)O [Control Drug 1 (Ampicillin), ampicillin, reference compound] | 0.1 (≈ 0.286 µM) |  |  |  |  |  |  |  |  |  |  |  |  |  |  |  |  |  |  |  | 
3 | CN(C)[C@@H]1C(O)=C(C(N)=O)C(=O)[C@@]2(O)C(O)=C3C(=O)c4c(O)cccc4[C@@](C)(O)[C@H]3C[C@@H]12 [Control Drug 3 (Tetracycline), tetracycline, reference compound] | 0.3 (≈ 0.675 µM) |  |  |  |  |  |  |  |  |  |  |  |  |  |  |  |  |  |  |  | 
4 | CC1COc2c(N3CCN(C)CC3)c(F)cc3c(=O)c(C(=O)O)cn1c23 (stereo not shown) [Control Drug 4 (Ofloxacin), ofloxacin, reference compound] | 1 (≈ 2.77 µM) | 2.5 (≈ 6.92 µM) | 2.5 (≈ 6.92 µM) | 25 (≈ 69.2 µM) | 0.8 (≈ 2.21 µM) | 0.8 (≈ 2.21 µM) | 0.4 (≈ 1.11 µM) | 0.8 (≈ 2.21 µM) | 0.8 (≈ 2.21 µM) |  |  |  |  |  |  |  |  |  |  |  | 
5 | Cc1c(OCCCCCO)ccnc1CSc1nc2ccccc2[nH]1 [Example 1, 2-[{4-(5-hydroxypentyloxy)-3-methylpyridin-2-yl}methylthio]-1H-benzimidazole] | 0.3 (≈ 0.839 µM) | 0.2 (≈ 0.559 µM) | 0.3 (≈ 0.839 µM) | 0.3 (≈ 0.839 µM) | 0.3 (≈ 0.839 µM) | 0.3 (≈ 0.839 µM) | 0.3 (≈ 0.839 µM) | 0.3 (≈ 0.839 µM) | 0.2 (≈ 0.559 µM) | > 100 | > 100 | > 100 | > 100 | > 100 | > 100 | > 100 | > 100 | > 100 | > 100 | > 100 | 
6 | Cc1c(OCCCCCCO)ccnc1CSc1nc2ccccc2[nH]1 [Example 2, 2-[{4-(6-hydroxyhexyloxy)-3-methylpyridin-2-yl}methylthio]-1H-benzimidazole] | 0.1 (≈ 0.269 µM) | 0.3 (≈ 0.808 µM) | 0.1 (≈ 0.269 µM) | 0.1 (≈ 0.269 µM) | 0.1 (≈ 0.269 µM) | 0.1 (≈ 0.269 µM) | 0.3 (≈ 0.808 µM) | 0.1 (≈ 0.269 µM) | 0.1 (≈ 0.269 µM) | > 100 | > 100 | > 100 | > 100 | > 100 | > 100 | > 100 | > 100 | > 100 | > 100 | > 100 | 
7 | Cc1c(OCCCCCCCO)ccnc1CSc1nc2ccccc2[nH]1 [Example 3, 2-[{4-(7-hydroxyheptyloxy)-3-methylpyridin-2-yl}methylthio]-1H-benzimidazole] | 0.1 (≈ 0.259 µM) | 0.1 (≈ 0.259 µM) | 0.1 (≈ 0.259 µM) | 0.1 (≈ 0.259 µM) | 0.1 (≈ 0.259 µM) | 0.1 (≈ 0.259 µM) | 0.1 (≈ 0.259 µM) | 0.1 (≈ 0.259 µM) | 0.1 (≈ 0.259 µM) | > 100 | > 100 | > 100 | > 100 | > 100 | > 100 | > 100 | > 100 | > 100 | > 100 | > 100 | 
8 | CC[C@H]1OC(=O)[C@H](C)[C@@H](O[C@H]2C[C@@](C)(OC)[C@@H](O)[C@H](C)O2)[C@H](C)[C@@H](O[C@@H]2O[C@H](C)C[C@H](N(C)C)[C@H]2O)[C@](C)(O)C[C@@H](C)/C(=N\OCOCCOC)[C@H](C)[C@@H](O)[C@]1(C)O [RXM, roxithromycin, reference compound] |  | > 100 | 3.5 (≈ 4.18 µM) | > 100 | 0.2 (≈ 0.239 µM) | 0.1 (≈ 0.119 µM) | 0.2 (≈ 0.239 µM) | 0.2 (≈ 0.239 µM) | 0.4 (≈ 0.478 µM) |  |  |  |  |  |  |  |  |  |  |  | MIC [18]: 0.1 µg/mL (≈ 0.119 µM); MIC [19]: 0.2 µg/mL (≈ 0.239 µM)

Source: patent US20090143438A1, “Novel Pyridine Derivative Having Anti-Helicobacter Pylori Activity” (Arigen Pharmaceuticals, Inc., priority 2006, published 2009)
